What all share (assay type): cell-based, mouse
Test [1] has as its system WT or Otub1-TKO naive OT-I CD8 T cells. Kind of test: Seahorse analysis of extracellular acidification rate (ECAR) with AKT inhibitor. The following applies: activated with anti-CD3 plus anti-CD28 for 24 h; AKTi 3 μM vs DMSO. Here is the method:
Metabolic assays. OCR and ECAR were measured with an XF96 extracellular flux analyzer (Seahorse Bioscience) following the manufacturer's instruction. Briefly, WT or Otub1-TKO CD8 naive T cells, either freshly isolated or in vitro activated with anti-CD3 plus anti-CD28 (for 24 h), were seeded in XF96 microplates (150,000 cells/well). The plates were quickly centrifuged to immobilize the cells. After incubation in a non-buffered assay medium (Seahorse Biosciences) in a non-CO2 incubator for 30 min, the cells were subjected to glycolysis assays with a XF glycolysis stress test kit (Seahorse Biosciences). Initial measurement of ECAR was done when cells were incubated in a glycolysis stress test medium without glucose to record the baseline. Glucose (10 mM) was then injected to induce ECAR, reflecting glycolysis rate under basal conditions. Subsequently, oligomycin (1 μM) was injected to inhibit mitochondrial ATP production and shift the energy production to glycolysis, thereby measuring the maximum glycolytic capacity (also called stressed ECAR). Finally, a glucose analog, 2-deoxy-glucose (2-DG, 100 mM) was injected to inhibit glycolysis through targeting glucose hexokinase, resulting in decreased ECAR that served as a measure to confirm the glycolysis-dependence of the detected ECAR. […]

Test [2] has the same test system. Nature of the test: qRT-PCR analysis of Glut1 and Hk2 expression with AKT inhibitor. The following applies: stimulated with anti-CD3 plus anti-CD28; AKTi vs DMSO. Here is the method:
Real-time quantitative PCR. RNA was extracted with TRIzol reagent from isolated WT OT-I or Otub1-TKO OT-I CD8 T cells. The RNA samples were subjected to quantitative PCR analyses using the SYBR regent (Bio-Rad). The expression of individual genes was calculated by a standard curve method and was normalized to the expression of Actb.

Test [3] has the same test system. Kind of test: ELISA of cytokines in culture supernatant with AKT inhibitor. To be noted: stimulated with anti-CD3 plus anti-CD28 for 66 h; AKTi vs DMSO. Here is the method:
T-cell and NK cell purification and in vitro treatments. CD8 and CD4 T cells were isolated from splenocytes with anti-CD8- or anti-CD4-conjugated magnetic beads (Miltenyi), and naive CD8 or CD4 T cells were further purified by FACS sorting to get CD44^loCD62L^hi population. The naive T cells were stimulated in replicate wells of 96-well plates (1×10^5 cells per well) for 66 h, and the culture supernatants were analyzed by ELISA (eBioScience).
Background: ELISA stands for enzyme-linked immunosorbent assay.

SMILES strings stand for the structures.

As to `O=c1[nH]c2ccccc2n1C1CCN(Cc2ccc(-c3nc4cc5[nH]cnc5cc4nc3-c3ccccc3)cc2)CC1` [AKTi], the “extracellular acidification rate (ECAR)” value in test [1] is “erased the ECAR differences between WT and Otub1-TKO CD8 T cells”. Besides, the “Glut1 and Hk2 expression (qRT-PCR)” value in test [2] was “blocked TCR-CD28-stimulated hyper-expression of the glycolysis-regulatory genes, Glut1 and Hk2”. Further, the “cytokine production (ELISA, culture supernatant)” value in test [3] is “blocked”.

The record behind these values is US20220233594A1, “TARGETING OTUB1 IN IMMUNOTHERAPY” (Board of Regents, The University ofTexas System, priority 2019, published 2022).
